What follows are molecules tested on Rattus norvegicus (assay: Tested for lowering of Blood pressure in spontaneous hypertensive rat at a dose of 10mg/kg, po at 6 hr.). Settings: not given.
Type: functional
Work on `CCCCc1cc(O)cc(=O)n1Cc1ccc(-c2ccccc2-c2nn[nH]n2)cc1` yielded a BP decrease of 36%.

These molecules were tested on Rattus norvegicus (assay: In vivo potency determined for AII-induced pressor response in normotensive rats, iv). Settings: read-out: ID50 (the source's name).
Type: functional
Molecule `CCCc1cc(N)c([N+](=O)[O-])c(=O)n1Cc1ccc(-c2ccccc2-c2nn[nH]n2)cc1` has an ED50 of 4.8 mg/kg.

What follows are molecules tested on Rattus norvegicus (assay: In vivo potency determined for AII-induced pressor response in normotensive rats, iv administration). Settings: read-out: ID50 (the source's name).
Type: functional
For `CCCc1cc(O)c(C)c(=O)n1Cc1ccc(-c2ccccc2-c2nn[nH]n2)cc1`, the ED50 was 0.027 mg/kg. `CCCc1cc(C(=O)O)cc(=O)n1Cc1ccc(-c2ccccc2-c2nn[nH]n2)cc1` gave an ED50 of 0.078 mg/kg. `CCCc1cc(CO)cc(=O)n1Cc1ccc(-c2ccccc2-c2nn[nH]n2)cc1` was tested, and the ED50 was 0.3 mg/kg. `CCCCc1cc(O)cc(=O)n1Cc1ccc(-c2ccccc2-c2nn[nH]n2)cc1` showed an ED50 of 0.38 mg/kg. `CCCc1cc(SC)cc(=O)n1Cc1ccc(-c2ccccc2-c2nn[nH]n2)cc1` was tested, and the ED50 was 0.28 mg/kg. `CCCc1cc(S)cc(=O)n1Cc1ccc(-c2ccccc2-c2nn[nH]n2)cc1` showed an ED50 of 0.017 mg/kg. Work on `CCCc1cc(OCc2cccnc2)cc(=O)n1Cc1ccc(-c2ccccc2-c2nn[nH]n2)cc1` yielded an ED50 of 0.72 mg/kg. `CCCc1cc(O)cc(=O)n1Cc1ccc(-c2ccccc2-c2nn[nH]n2)cc1` gave an ED50 of 0.048 mg/kg. `CCCc1cc(C(=O)NCCN(C)C)cc(=O)n1Cc1ccc(-c2ccccc2-c2nn[nH]n2)cc1` gave an ED50 of 0.18 mg/kg. `CCCc1cccc(=O)n1Cc1ccc(-c2ccccc2-c2nn[nH]n2)cc1` showed an ED50 of 1.1 mg/kg. In the case of `CCc1cc(O)cc(=O)n1Cc1ccc(-c2ccccc2-c2nn[nH]n2)cc1`, the ED50 is reported as 0.084 mg/kg. For `CCCc1cc(OC)cc(=O)n1Cc1ccc(-c2ccccc2-c2nn[nH]n2)cc1`, the ED50 was 0.24 mg/kg. Molecule `CCCCc1cc(O)c([N+](=O)[O-])c(=O)n1Cc1ccc(-c2ccccc2-c2nn[nH]n2)cc1` has an ED50 of 0.58 mg/kg. Work on `CCCCc1nc(Cl)c(CO)n1Cc1ccc(-c2ccccc2-c2nnn[n-]2)cc1.[K+]` [LOSARTAN POTASSIUM] yielded an ED50 of 1.2 mg/kg.

— ChEMBL document CHEMBL1127229, “New non-peptide angiotensin II receptor antagonists. 1: structure - activity relationships of a series of a series of 2(1H)-pyridinones” (1994)
